Values quoted from earlier work in patent publication US6465192B2, “Compounds and methods for the inhibition of protein-protein interactions” (priority 1997, dated 2002).

Legend:
[1] = halogen substitutions of the phenyl ring, SN1

Compound: COc1ccc([N+](=O)[O-])c(F)c1CBr [R = F, 2-methoxy-5-nitro-6-fluorobenzyl bromide]
- Relative reaction rate [1]: 0.05

Compound: penicillin
- forward reaction rate with lysine side chains in proteins (physiological conditions): about 1×10^−5 /M/sec
- non-specific covalent bonding rate constant to form stable bonds with amino acid side chains (side chains such as those of serine and lysine): about 8×10^−6 /M/sec

Compound: COc1ccc([N+](=O)[O-])c(Br)c1CBr [R = Br, 2-methoxy-5-nitro-6-bromobenzyl bromide]
- Relative reaction rate [1]: 0.006
